Source: PMC314469, “Protein Interaction Networks by Proteome Peptide Scanning” (PLoS Biology, 2004)

Test system: Myo5 SH3 domain
Test: SPOT analysis of cellulose-bound peptides (WISE), Myo5 SH3 domain (Dataset S4)
Assay type: binding, Saccharomyces cerevisiae
Settings: for The normalized value in BLU units: Myo5 SH3 domain
[1] = SPOT analysis of membrane-synthesized peptides probed with Myo5 SH3 domain, normalized value
[2] = SPOT analysis of cellulose-bound 14-mer yeast proteome peptides, normalized value, mean where the peptide was synthesized more than once
[3] = SPOT analysis of membrane-bound peptides, normalized value (see methods)
[4] = SPOT analysis of cellulose-bound peptides probed with Myo5 SH3 domain, normalized value

How did the “The normalized value in BLU units (SPOT analysis, Myo5 SH3)” value [1] turn out when WSQMRMNPTNPDWI was run?
The value was 81.2 BLU.

With YASQYSRPDGPILL as the sequence, how does the “The normalized value in BLU units” value [2] read?
Its value is 113.5 BLU.

For YAVDKIMPPTPAKK, which “The normalized value in BLU units” value [3] is on record?
The value was 109.8 BLU.

How did the “The normalized value in BLU units (SPOT analysis, Myo5 SH3)” value [1] turn out when YAVGRIVPDSPTYD was run?
Its value is 189.3 BLU.

Which “The normalized value in BLU units” value [3] does the source give for YCPWKLCPLLPILY here?
Its value is 176.0 BLU.

YDLTRFLPNHPGGQ was tested. Which “The normalized value in BLU units” value [3] did it give?
The value was 80.6 BLU.

How did the “The normalized value in BLU units” value [2] turn out when YEADYVIPVLPGSH was run?
The value was 124.6 BLU.

YEGPRGAPGMPEML was tested. Which “The normalized value in BLU units” value [3] did it give?
Its value is 166.5 BLU.

With YEGRFWNPENPYKF as the sequence, how does the “The normalized value in BLU units” value [2] read?
Its value is 162.7 BLU.

How did the “The normalized value in BLU units (SPOT analysis, Myo5 SH3)” value [4] turn out when YEKALHFPAGPKST was run?
The value was 147.4 BLU.

Which “The normalized value in BLU units” value [2] does the source give for YENCHSLPLDPQSP here?
Its value is 121.9 BLU.

With YEQTMKSPKYPSTY as the sequence, how does the “The normalized value in BLU units (SPOT analysis, Myo5 SH3)” value [4] read?
The value was 138.4 BLU.

For YEVTFDGPNDPLHP, which “The normalized value in BLU units” value [2] is on record?
The value was 110.9 BLU.

How did the “The normalized value in BLU units” value [2] turn out when YFKELPPPSDPSSI was run?
Its value is 164.8 BLU.

YFKNMSNPKIPATK was tested. Which “The normalized value in BLU units (SPOT analysis, Myo5 SH3)” value [4] did it give?
Its value is 127.8 BLU.

For YFVKKIRPGNPLTK, which “The normalized value in BLU units” value [3] is on record?
Its value is 508.5 BLU.

YGDNKKNPESPESV was tested. Which “The normalized value in BLU units” value [3] did it give?
The value was 147.1 BLU.

How did the “The normalized value in BLU units” value [3] turn out when YGSEKGSPAGPSAV was run?
The value was 50.3 BLU.

How did the “The normalized value in BLU units (SPOT analysis, Myo5 SH3)” value [1] turn out when YILPKTDPRSPYYI was run?
The value was 188.5 BLU.

For YKNRKNLPTIPIRL, which “The normalized value in BLU units (SPOT analysis, Myo5 SH3)” value [1] is on record?
The value was 960.6 BLU.

For YLLELPDPLIPNDV, which “The normalized value in BLU units (SPOT analysis, Myo5 SH3)” value [4] is on record?
Its value is 162.7 BLU.

How did the “The normalized value in BLU units (SPOT analysis, Myo5 SH3)” value [4] turn out when YLNNLAEPLIPLSL was run?
The value was 222.0 BLU.

How did the “The normalized value in BLU units (SPOT analysis, Myo5 SH3)” value [4] turn out when YLNSLSEPLVPLAL was run?
Its value is 131.6 BLU.

With YLPHMSRPLGPDEV as the sequence, how does the “The normalized value in BLU units (SPOT analysis, Myo5 SH3)” value [4] read?
The value was 172.0 BLU.

How did the “The normalized value in BLU units” value [2] turn out when YLTEFSRPIPPTPS was run?
The value was 168.8 BLU.

With YPAKLRIPETPVKK as the sequence, how does the “The normalized value in BLU units” value [2] read?
Its value is 219.9 BLU.

For YPEKFQKPYNPLAM, which “The normalized value in BLU units” value [2] is on record?
Its value is 157.4 BLU.

With YPNGRTLPPVPTQV as the sequence, how does the “The normalized value in BLU units” value [3] read?
The value was 172.4 BLU.

YSTNRGIPARPCKD was tested. Which “The normalized value in BLU units” value [2] did it give?
The value was 271.3 BLU.

How did the “The normalized value in BLU units (SPOT analysis, Myo5 SH3)” value [1] turn out when YSYLRLLPWWPSLA was run?
The value was 187.6 BLU.

Which “The normalized value in BLU units (SPOT analysis, Myo5 SH3)” value [1] does the source give for YTYSRNEPVIPTKP here?
Its value is 209.5 BLU.

For YVKERRPPPPPPLL, which “The normalized value in BLU units” value [3] is on record?
Its value is 15869.6 BLU.

YVNAKLDPSLPSQY was tested. Which “The normalized value in BLU units (SPOT analysis, Myo5 SH3)” value [1] did it give?
The value was 97.1 BLU.

YVNPRNLPSVPNGL was tested. Which “The normalized value in BLU units (SPOT analysis, Myo5 SH3)” value [1] did it give?
The value was 179.8 BLU.

YVVKKNFPVSPNYT was tested. Which “The normalized value in BLU units” value [3] did it give?
Its value is 193.9 BLU.

Which “The normalized value in BLU units (SPOT analysis, Myo5 SH3)” value [1] does the source give for YVYGRQDPKKPFFT here?
Its value is 345.2 BLU.

YWGKKFEPERPFEF was tested. Which “The normalized value in BLU units (SPOT analysis, Myo5 SH3)” value [1] did it give?
Its value is 385.0 BLU.

YWKLFFQPEYPVRM was tested. Which “The normalized value in BLU units” value [2] did it give?
The value was 144.2 BLU.

For YYYYKHYPNMPPIN, which “The normalized value in BLU units (SPOT analysis, Myo5 SH3)” value [1] is on record?
The value was 287.9 BLU.
